This is an account of results in ChEMBL document CHEMBL5550160, “Leveraging a rationally designed veliparib-based anilide eliciting anti-leukemic effects for the design of pH-responsive polymer nanoformulation” (Eur J Med Chem, 2024).

The source made the active and inactive calls. No cut-off for these calls is given here.

The subject of one assay is MDA-MB-231. As to the kind of experiment: Antiproliferative activity against human MDA-MB-231 cells assessed as inhibition of cell growth by MTT assay. Format: functional, cell-based. Background: Tetrazolium assays rely on reduction of a dye to a coloured formazan, in cell work by metabolically active cells.
The target of assay [1] is T1, Histone deacetylase 2 (Homo sapiens, UniProt Q92769). As to the kind of experiment: Inhibition of HDAC2 (unknown origin) assessed as residual activity at 1 x 10^-5M (reference value: 99.81%). The conditions noted are these: dose 1.0 10^-5M.
T1 sequence (Q92769 whole entry, the tested form may be a part): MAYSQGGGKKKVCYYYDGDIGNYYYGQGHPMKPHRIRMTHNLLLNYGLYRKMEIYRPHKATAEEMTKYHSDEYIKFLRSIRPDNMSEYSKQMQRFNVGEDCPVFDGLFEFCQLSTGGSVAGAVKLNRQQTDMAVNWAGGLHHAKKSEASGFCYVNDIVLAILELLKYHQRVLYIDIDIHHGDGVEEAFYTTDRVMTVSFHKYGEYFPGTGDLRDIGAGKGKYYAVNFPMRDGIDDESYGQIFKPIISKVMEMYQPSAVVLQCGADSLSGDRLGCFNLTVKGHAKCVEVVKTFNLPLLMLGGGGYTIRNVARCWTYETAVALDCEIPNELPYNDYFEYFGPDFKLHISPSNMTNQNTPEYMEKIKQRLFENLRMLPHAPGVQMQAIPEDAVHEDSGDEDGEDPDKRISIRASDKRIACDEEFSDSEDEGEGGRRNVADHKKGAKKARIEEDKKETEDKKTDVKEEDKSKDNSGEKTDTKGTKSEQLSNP
Assay [2] addresses T2, Histone deacetylase 1 (Homo sapiens, UniProt Q13547). Put plainly: Inhibition of HDAC1 (unknown origin) using p53 residues 379 to 382 [RHKK(Ac)] as fluorogenic substrate assessed as residual activity at 3.33 x 10^-6M (reference value: 98.06%). The conditions noted are these: dose 3.33 10^-6M.
In assay [3] the target is T2, Histone deacetylase 1. Put plainly: Inhibition of HDAC1 (unknown origin) using p53 residues 379 to 382 [RHKK(Ac)] as fluorogenic substrate assessed as residual activity at 1.37 x 10^-8M (reference value: 98.06%). The conditions noted are these: dose 1.37 10^-8M.
Assay [4] addresses T1, Histone deacetylase 2. As to the kind of experiment: Inhibition of HDAC2 (unknown origin) assessed as residual activity at 3.70 x 10^-7M (reference value: 99.81%). The conditions noted are these: dose 3.7 10^-7M.
The target of assay [5] is Histone deacetylase 4 (Homo sapiens) (UniProt P56524). As to the kind of experiment: Inhibition of HDAC4 (unknown origin) assessed as residual activity at 1.23 x 10^-7M (reference value: 98.90%). The note with it: dose 1.23 10^-7M.
Sequence of Histone deacetylase 4 (Homo sapiens) (P56524 whole entry): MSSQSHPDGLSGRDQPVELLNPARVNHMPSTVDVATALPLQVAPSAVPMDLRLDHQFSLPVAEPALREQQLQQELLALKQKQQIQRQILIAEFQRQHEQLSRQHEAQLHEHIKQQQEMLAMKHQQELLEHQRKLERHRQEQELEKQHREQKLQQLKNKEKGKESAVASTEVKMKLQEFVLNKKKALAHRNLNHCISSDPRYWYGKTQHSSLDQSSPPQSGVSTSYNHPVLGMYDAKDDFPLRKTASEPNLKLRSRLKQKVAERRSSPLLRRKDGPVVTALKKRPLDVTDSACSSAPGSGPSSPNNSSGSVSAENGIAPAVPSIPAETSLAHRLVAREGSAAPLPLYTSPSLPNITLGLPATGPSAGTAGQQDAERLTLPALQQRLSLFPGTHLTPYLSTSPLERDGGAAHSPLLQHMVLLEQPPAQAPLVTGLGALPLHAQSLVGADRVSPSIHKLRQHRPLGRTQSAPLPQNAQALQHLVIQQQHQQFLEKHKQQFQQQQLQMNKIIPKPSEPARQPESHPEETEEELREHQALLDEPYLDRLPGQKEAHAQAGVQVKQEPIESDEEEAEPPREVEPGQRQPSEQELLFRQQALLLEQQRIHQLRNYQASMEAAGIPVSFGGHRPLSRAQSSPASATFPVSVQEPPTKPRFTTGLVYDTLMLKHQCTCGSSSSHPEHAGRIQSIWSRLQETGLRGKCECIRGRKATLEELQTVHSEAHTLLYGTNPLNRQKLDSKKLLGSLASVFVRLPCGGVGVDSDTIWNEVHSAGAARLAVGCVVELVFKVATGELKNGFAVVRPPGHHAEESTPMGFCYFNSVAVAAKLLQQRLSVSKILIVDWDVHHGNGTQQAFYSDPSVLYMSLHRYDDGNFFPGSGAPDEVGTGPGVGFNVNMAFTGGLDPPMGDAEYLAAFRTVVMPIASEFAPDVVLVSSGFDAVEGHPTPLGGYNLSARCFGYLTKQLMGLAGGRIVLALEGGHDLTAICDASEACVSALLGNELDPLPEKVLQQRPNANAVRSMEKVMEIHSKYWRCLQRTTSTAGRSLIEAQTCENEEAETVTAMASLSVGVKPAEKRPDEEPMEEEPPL
Assay [6] deals with Histone deacetylase 5 (Homo sapiens) (UniProt Q9UQL6). Put plainly: Inhibition of HDAC5 (unknown origin) assessed as residual activity at 1.1 x 10^-6M (reference value: 100%). The conditions noted are these: dose 1.1 10^-6M.
Sequence of Histone deacetylase 5 (Homo sapiens) (Q9UQL6 whole entry): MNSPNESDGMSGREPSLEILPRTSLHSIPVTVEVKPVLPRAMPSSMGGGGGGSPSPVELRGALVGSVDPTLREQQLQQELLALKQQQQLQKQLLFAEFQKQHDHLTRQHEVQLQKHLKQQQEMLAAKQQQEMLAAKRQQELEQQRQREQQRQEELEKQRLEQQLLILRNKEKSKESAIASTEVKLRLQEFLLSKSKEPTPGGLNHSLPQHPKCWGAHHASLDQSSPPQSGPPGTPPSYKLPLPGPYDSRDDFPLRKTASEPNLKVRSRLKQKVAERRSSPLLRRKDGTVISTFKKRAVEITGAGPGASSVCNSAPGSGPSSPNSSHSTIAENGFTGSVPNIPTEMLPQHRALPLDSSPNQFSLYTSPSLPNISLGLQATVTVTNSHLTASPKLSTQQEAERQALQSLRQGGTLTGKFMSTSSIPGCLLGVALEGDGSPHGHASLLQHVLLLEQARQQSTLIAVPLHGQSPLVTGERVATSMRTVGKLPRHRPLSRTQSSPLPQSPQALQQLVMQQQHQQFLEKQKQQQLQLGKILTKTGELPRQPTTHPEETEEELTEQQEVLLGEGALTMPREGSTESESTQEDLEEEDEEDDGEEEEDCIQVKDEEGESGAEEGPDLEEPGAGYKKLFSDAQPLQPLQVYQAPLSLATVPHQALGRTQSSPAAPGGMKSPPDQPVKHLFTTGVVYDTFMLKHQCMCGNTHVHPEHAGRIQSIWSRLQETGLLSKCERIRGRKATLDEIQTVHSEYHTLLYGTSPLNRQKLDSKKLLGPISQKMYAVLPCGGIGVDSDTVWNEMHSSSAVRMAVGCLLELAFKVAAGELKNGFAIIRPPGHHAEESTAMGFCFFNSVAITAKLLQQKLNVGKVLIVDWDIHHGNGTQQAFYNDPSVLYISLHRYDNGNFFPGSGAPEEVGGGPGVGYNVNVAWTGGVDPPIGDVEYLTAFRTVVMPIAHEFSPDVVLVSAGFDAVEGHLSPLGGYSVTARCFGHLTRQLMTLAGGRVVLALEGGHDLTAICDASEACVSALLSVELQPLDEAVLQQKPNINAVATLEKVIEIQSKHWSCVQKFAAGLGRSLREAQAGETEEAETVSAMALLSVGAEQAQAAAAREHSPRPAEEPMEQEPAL
The target is the same in assay [7]. Put plainly: Inhibition of HDAC5 (unknown origin) assessed as residual activity at 4.12 x 10^-8M (reference value: 100%). The conditions noted are these: dose 4.12 10^-8M.
Assay [8] shares this target. Put plainly: Inhibition of HDAC5 (unknown origin) assessed as residual activity at 5.08 x 10^-10M (reference value: 100%). The note with it: dose 5.08 10^-10M.
Assay [9] deals with T3, Histone deacetylase 8 (Homo sapiens) (UniProt Q9BY41).
T3 sequence (whole entry): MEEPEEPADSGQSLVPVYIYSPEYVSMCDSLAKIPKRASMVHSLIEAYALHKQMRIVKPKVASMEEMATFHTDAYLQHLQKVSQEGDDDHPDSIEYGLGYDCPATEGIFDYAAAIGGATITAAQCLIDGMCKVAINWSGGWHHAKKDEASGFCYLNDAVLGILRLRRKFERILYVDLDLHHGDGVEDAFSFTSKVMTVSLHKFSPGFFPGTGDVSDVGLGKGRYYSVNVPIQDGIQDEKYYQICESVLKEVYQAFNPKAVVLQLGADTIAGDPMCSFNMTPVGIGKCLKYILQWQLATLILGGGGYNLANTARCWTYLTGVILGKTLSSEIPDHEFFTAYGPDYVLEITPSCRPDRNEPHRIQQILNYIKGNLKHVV
Put plainly: Inhibition of HDAC8 (unknown origin) assessed as residual activity at 3.70 x 10^-7M (reference value: 100%). The note with it: dose 3.7 10^-7M.

The target in assay [10] is T4, Polyamine deacetylase HDAC10 (Homo sapiens) (UniProt Q969S8).
T4 sequence (whole entry): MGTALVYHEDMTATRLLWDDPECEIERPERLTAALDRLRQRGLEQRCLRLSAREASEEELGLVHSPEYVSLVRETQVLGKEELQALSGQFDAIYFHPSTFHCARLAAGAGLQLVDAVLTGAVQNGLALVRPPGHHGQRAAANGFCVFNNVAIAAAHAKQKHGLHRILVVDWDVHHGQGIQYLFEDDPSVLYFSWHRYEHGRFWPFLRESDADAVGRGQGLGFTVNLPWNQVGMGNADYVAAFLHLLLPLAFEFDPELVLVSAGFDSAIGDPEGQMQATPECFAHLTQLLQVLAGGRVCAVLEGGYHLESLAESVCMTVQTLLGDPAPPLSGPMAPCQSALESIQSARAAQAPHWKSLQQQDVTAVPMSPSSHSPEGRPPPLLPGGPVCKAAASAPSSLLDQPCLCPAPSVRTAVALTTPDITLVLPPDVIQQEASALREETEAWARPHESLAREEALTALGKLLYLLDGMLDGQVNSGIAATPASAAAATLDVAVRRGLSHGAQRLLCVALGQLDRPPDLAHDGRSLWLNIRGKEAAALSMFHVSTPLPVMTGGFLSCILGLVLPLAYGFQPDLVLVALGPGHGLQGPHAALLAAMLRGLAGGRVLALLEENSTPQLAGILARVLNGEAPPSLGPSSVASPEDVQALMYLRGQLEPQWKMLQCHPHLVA
Put plainly: Inhibition of HDAC10 (unknown origin) assessed as residual activity at 1.23 x 10^-7M (reference value: 101.54%). The conditions noted are these: dose 1.23 10^-7M.

Assay [11] relates to HL-60. Put plainly: Downregulation of PAR protein expression in human HL-60 cells at 0.5 to 1 times IC50 measured after 24 hrs by Western blot analysis. Format: functional, cell-based. (A western blot detects proteins with antibodies after separation by electrophoresis.)
Assay [12] relates to HL-60. As to the kind of experiment: Induction of autophagy in human HL-60 cells assessed as increase in autophagic flux by measuring increase in red-stained cells at 0.5 to 1 times IC50 by acridine orange staining based microscopic analysis. Format: functional, cell-based.
Assay [13] deals with HL-60. Put plainly: cells. The note with it: Homo sapiens.
Description: Antiproliferative activity against human HL-60 cells assessed as inhibition of cell growth by MTT assay

T2 sequence (Q13547 whole entry, the tested form may be a part): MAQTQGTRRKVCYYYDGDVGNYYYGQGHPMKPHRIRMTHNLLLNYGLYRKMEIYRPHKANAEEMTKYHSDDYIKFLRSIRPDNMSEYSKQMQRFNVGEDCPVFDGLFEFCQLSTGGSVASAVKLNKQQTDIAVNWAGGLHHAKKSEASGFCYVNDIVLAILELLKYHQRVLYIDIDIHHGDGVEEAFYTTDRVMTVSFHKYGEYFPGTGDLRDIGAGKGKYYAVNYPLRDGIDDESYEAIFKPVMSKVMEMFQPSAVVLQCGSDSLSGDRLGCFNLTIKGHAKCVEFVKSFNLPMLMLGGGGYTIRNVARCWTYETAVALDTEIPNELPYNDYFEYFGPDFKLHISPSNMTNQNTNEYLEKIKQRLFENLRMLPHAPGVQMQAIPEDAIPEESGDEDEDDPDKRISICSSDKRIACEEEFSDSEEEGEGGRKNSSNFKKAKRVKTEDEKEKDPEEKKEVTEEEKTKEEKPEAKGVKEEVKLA

As usually defined, the IC50 is the point on the concentration scale where inhibition reaches its midpoint. As to `NC(=O)c1cccc2[nH]c(-c3ccc(NCc4ccc(C(=O)Nc5ccccc5N)cc4)cc3)nc12`, the 50% inhibitory concentration (IC50) in the assay on MDA-MB-231 is more than 10 µM; with HL-60 [13], 690 nM. Besides, the Activity was found to be 7.52% at Histone deacetylase 2 [1]; 6.73% at Histone deacetylase 1 [2]; 73.9% at Histone deacetylase 1 [3]; 33.5% at Histone deacetylase 2 [4]; 85% in assay [5]; 93% in [6]. Also, the Activity is 93.1% in assay [7]; 39% in [8]; 99.5% in assay [9]; 101% in assay [10]; “Dose-Dependent Effect” with HL-60 [11]. Moreover, the result in the assay on HL-60 [12] was Active.
